Data reported in the supplement of paper PMC11208160.

Assay: recombinant barcode read abundance after kanamycin selection (control-corrected) (log10(CPM+1)); higher = more efficient recombination; sequences stand for … in AGTGCAGAGAAAATCGGCCAGTTTTCTCTGCCTGCAGTCCGCATGCCGT…AGATTTATGCAGCGGACTGCCTTTCTCCCAAAGTGATAAACCGGACAGTATCATGGACCGGTTTTCCCGGTAATCCGTATTTGCAAGGTTGGTTTCACT; site = the 11-nt target
How it was run: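 IS621 bridge RNA target-binding loops were paired with targets in a pooled library tested in E. coli. After co-electroporation with a donor plasmid, cells were plated in two replicates on chloramphenicol/ampicillin LB agar (control) and on chloramphenicol/ampicillin/kanamycin carrying 0.1 mM IPTG. Barcodes at recombinant junctions were counted as counts per million, averaged and control-corrected to give recombination efficiency. Values are log10(CPM+1).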
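Note: IS621 recombinase and bridge RNA in Escherichia coli cells.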

Sequence	recombinant barcode read abundance (log10)
TAATTGCCTTGGGTTCTAACCTGTTGCCT (site TAATTGCCTAG)	0.645
TAATTGCCTTGGGTTCTAACCTGTTGCCT (site TACTTGCCTAG)	0.324
TAATTGCCTTGGGTTCTAACCTGTTGCCT (site TAGTTGCCTAG)	0.474
TAATTGCCTTGGGTTCTAACCTGTTGCCT (site TATTTGCCTAG)	0.0725
TACAAGCCTTGGGTTCTAACCTGTTGCCT (site TACAAGCCTAG)	0.338
TACAAGCCTTGGGTTCTAACCTGTTGCCT (site TAGAAGCCTCG)	0.0913
TACAAGGCTTGGGTTCTAACCTGTTGCGG (site TACAAGGCTCC)	2.68
TACAAGGCTTGGGTTCTAACCTGTTGCGG (site TACAAGTCTCC)	0.292
TACACAGCTTGGGTTCTAACCTGTTGCCT (site TAAACAGCTAG)	0.176
TACACAGCTTGGGTTCTAACCTGTTGCCT (site TACACAGCTAG)	0.909
TACACAGCTTGGGTTCTAACCTGTTGCCT (site TAGACAGCTAG)	0.249
TACACAGCTTGGGTTCTAACCTGTTGCCT (site TATACAGCTAG)	0.149
TACACTACTTGGGTTCTAACCTGTTGCCG (site TACACGACTCC)	0.0364
TACACTACTTGGGTTCTAACCTGTTGCCG (site TACACTACTCG)	0.177
TACATCCCTTGGGTTCTAACCTGTTGCCA (site TACATCCCTAG)	0.5
TACATCCCTTGGGTTCTAACCTGTTGCCA (site TACATCCCTCG)	0.0234
TACATCCCTTGGGTTCTAACCTGTTGCCA (site TACATCCCTGG)	0.0594
TACATCCCTTGGGTTCTAACCTGTTGCCA (site TACATCCCTTG)	0.358
TACATTCCTTGGGTTCTAACCTGTTGCCT (site AACATTCCTAG)	0.0286
TACATTCCTTGGGTTCTAACCTGTTGCCT (site CACATTCCTAG)	0.0666
TACATTCCTTGGGTTCTAACCTGTTGCCT (site GACATTCCTAG)	0.179
TACATTCCTTGGGTTCTAACCTGTTGCCT (site TACATTCCTAG)	0.156

Sequence	recombinant barcode read abundance (log10)
TACCCTACTTGGGTTCTAACCTGTTGCCT (site AACCCTACTAG)	0.0271
TACCCTACTTGGGTTCTAACCTGTTGCCT (site CACCCTACTAG)	0.0188
TACCCTACTTGGGTTCTAACCTGTTGCCT (site GACCCTACTAG)	0.0371
TACCCTACTTGGGTTCTAACCTGTTGCCT (site TACCCTACTAG)	0.628
TACCGGCCTTGGGTTCTAACCTGTTGCCT (site TAACGGCCTAG)	0.288
TACCGGCCTTGGGTTCTAACCTGTTGCCT (site TACCGGCCTAG)	0.141
TACCGGCCTTGGGTTCTAACCTGTTGCCT (site TAGCGGCCTAG)	0.176
TACCGGCCTTGGGTTCTAACCTGTTGCCT (site TATCGGCCTAG)	0.166
TACCTAGCTTGGGTTCTAACCTGTTGCGT (site TACCTAGCTAC)	1.3
TACCTAGCTTGGGTTCTAACCTGTTGCGT (site TACCTATCTAC)	0.433
TACCTATCTTGGGTTCTAACCTGTTGCCT (site TACCTATCTAG)	1.11
TACCTATCTTGGGTTCTAACCTGTTGCCT (site TCCCTATCTAG)	0.00692
TACCTATCTTGGGTTCTAACCTGTTGCCT (site TGCCTATCTAG)	0.0136
TACCTATCTTGGGTTCTAACCTGTTGCCT (site TTCCTATCTAG)	0.429
TACCTGACTTGGGTTCTAACCTGTTGCCT (site TACCAGACTAG)	0.0067
TACCTGACTTGGGTTCTAACCTGTTGCCT (site TACCCGACTAG)	0.355
TACCTGACTTGGGTTCTAACCTGTTGCCT (site TACCGGACTAG)	0.106
TACCTGACTTGGGTTCTAACCTGTTGCCT (site TACCTGACTAG)	0.688
TACGCCTCTTGGGTTCTAACCTGTTGCCT (site AACGCCTCTAG)	0.0117
TACGCCTCTTGGGTTCTAACCTGTTGCCT (site CACGCCTCTAG)	0.164
TACGCCTCTTGGGTTCTAACCTGTTGCCT (site GACGCCTCTAG)	0.249
TACGCCTCTTGGGTTCTAACCTGTTGCCT (site TACGCCTCTAG)	1.29

Sequence	recombinant barcode read abundance (log10)
TACGTGTCTTGGGTTCTAACCTGTTGCCT (site TAAGTGTCTAG)	0.408
TACGTGTCTTGGGTTCTAACCTGTTGCCT (site TACGTGTCTAG)	2.4
TACGTGTCTTGGGTTCTAACCTGTTGCCT (site TAGGTGTCTAG)	0.0617
TACGTGTCTTGGGTTCTAACCTGTTGCCT (site TATGTGTCTAG)	0.103
TACTAAGCTTGGGTTCTAACCTGTTGCCT (site TACTAAGCTAA)	0
TACTAAGCTTGGGTTCTAACCTGTTGCCT (site TACTAAGCTAC)	0.098
TACTAAGCTTGGGTTCTAACCTGTTGCCT (site TACTAAGCTAG)	0.495
TACTAAGCTTGGGTTCTAACCTGTTGCCT (site TACTAAGCTAT)	0.171
TACTATGCTTGGGTTCTAACCTGTTGCGA (site TACTATGCTTC)	0.41
TACTATGCTTGGGTTCTAACCTGTTGCGA (site TCCTATTCTTC)	0
TACTATTCTTGGGTTCTAACCTGTTGCCT (site TACTATACTAG)	0.0693
TACTATTCTTGGGTTCTAACCTGTTGCCT (site TACTATCCTAG)	0.0345
TACTATTCTTGGGTTCTAACCTGTTGCCT (site TACTATGCTAG)	0.175
TACTATTCTTGGGTTCTAACCTGTTGCCT (site TACTATTCTAG)	0.263
TACTGCTCTTGGGTTCTAACCTGTTGCTT (site TACAGCTCTAA)	0.0305
TACTGCTCTTGGGTTCTAACCTGTTGCTT (site TACCGCTCTAA)	0.213
TACTGCTCTTGGGTTCTAACCTGTTGCTT (site TACGGCTCTAA)	0.0516
TACTGCTCTTGGGTTCTAACCTGTTGCTT (site TACTGCTCTAA)	0.296
TACTTAACTTGGGTTCTAACCTGTTGCCT (site TACTAAACTAG)	0.119
TACTTAACTTGGGTTCTAACCTGTTGCCT (site TACTCAACTAG)	0.00663
TACTTAACTTGGGTTCTAACCTGTTGCCT (site TACTGAACTAG)	0.0656
TACTTAACTTGGGTTCTAACCTGTTGCCT (site TACTTAACTAG)	0.134
